The values below are quoted from earlier work in patent US4820521A, “Sustained absorption pharmaceutical composition” (priority 1983, dated 1989).

For one data set, the system named is involuntary muscle. The conditions noted are these: versus theobromine and caffeine.
For data set [1] the following is noted: versus caffeine.
The conditions of data set [2]: human, in vivo.

As for `Cn1c(=O)c2[nH]cnc2n(C)c1=O` [Theophylline, 1,3-dimethylxanthine], the “relaxant of involuntary muscle (in words)” value in the data set on involuntary muscle is “more powerful relaxant of involuntary muscle than either theobromine or caffeine”. Further, the “diuretic action (in words)” value in data set [1] was “stronger than that of caffeine is of short duration”. Besides, the “minimum effective plasma concentration” value (in vivo) was “about 5 mcg/ml”. Further, where the note is “plasma”, the average therapeutic concentration result was “about 10 mcg/ml” and the “therapeutic range of concentration” value was 10 to 20 µg/mL. Also, where the note is “plasma levels above 20 mcg/ml”, the “toxicity of levels above 20 mcg/ml” value is listed as “toxic”. The “effect of levels below 10 mcg/ml” value (plasma levels below 10 mcg/ml) is given as “ineffective”. The apparent biological half-life in data set [2] is recorded as 4-9 hours.
